We go through 31 compounds from ChEMBL document CHEMBL3351490, “The discovery of potent, orally bioavailable pyrimidine-5-carbonitrile-6-alkyl CXCR2 receptor antagonists” (Bioorg Med Chem Lett, 2014).

For data set [1], the target named is T1, C-X-C chemokine receptor type 2 (Homo sapiens, UniProt P25025).
T1 sequence (P25025 whole entry): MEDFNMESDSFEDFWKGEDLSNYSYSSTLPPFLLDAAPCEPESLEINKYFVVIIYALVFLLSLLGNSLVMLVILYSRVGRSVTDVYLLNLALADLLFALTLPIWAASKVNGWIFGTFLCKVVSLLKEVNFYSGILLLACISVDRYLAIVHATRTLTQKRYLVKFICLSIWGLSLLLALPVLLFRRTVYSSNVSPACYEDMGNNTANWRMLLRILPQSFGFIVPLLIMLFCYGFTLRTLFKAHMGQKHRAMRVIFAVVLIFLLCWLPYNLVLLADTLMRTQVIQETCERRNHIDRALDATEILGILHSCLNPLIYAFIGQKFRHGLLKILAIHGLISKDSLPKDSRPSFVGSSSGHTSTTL
Briefly: Antagonist activity against human recombinant CXCR2 receptor expressed in CHO cell membranes by SPA based [35S]GTPgammaS binding assay. The format is functional. On the technique in general: GTPγS is a poorly hydrolysed GTP analogue; its binding reports G protein activation.

For data set [2], the target named is T2, C-X-C chemokine receptor type 2 (Homo sapiens) (UniProt P25025).
T2 sequence (whole entry): T1 sequence (P25025 whole entry)
Briefly: Antagonist activity against human recombinant CXCR2 receptor expressed in CHO cell membranes at 10 uM by SPA based [35S]GTPgammaS binding assay. In kind it is functional.

In data set [3] the target is T1, C-X-C chemokine receptor type 2. Briefly: Displacement of [125I]-GRO-alpha from human recombinant CXCR2 receptor expressed in CHO cell membranes. A general note: In a radioligand displacement assay an active substance lowers the binding of a labelled ligand.
Data set [4] is described as follows: Clearance in iv dosed rat. In kind it is ADME, organism-based. Particulars: in vivo.
Data set [5] in a line: Volume of distribution at steady state in iv dosed rat. Particulars: in vivo, read-out: Vdss. The format is ADME, organism-based.
Data set [6] can be described thus: Half life in iv dosed rat. The format is ADME, organism-based. Particulars: in vivo.
Data set [7] is described as follows: Oral bioavailability in rat. In kind it is ADME, organism-based. Particulars: in vivo.
The nature of data set [8]: Protein binding in rat plasma. The format is ADME, cell-free. The settings on record: read-out: PPB.
Data set [9] in a line: Equilibrium solubility at pH 6.8. The format is physicochemical. Particulars: buffer.
Data set [10] is described as follows: Dissociation constant, pKa of the compound. In kind it is physicochemical.

In brackets after ≈: the same amount, converted by molar mass. Some results are limits rather than exact numbers.

Usually IC50 stands for the midpoint of a concentration-inhibition curve. Regarding `Oc1nc(SCc2cccc(F)c2F)nc(C2CC2)c1Br`, the IC50 in data set [1] was determined as 1400 nM.
The term inhibition denotes the percentage by which the read-out fell short of the control. Regarding `CC(C)(C)c1nc(SCc2cccc(F)c2F)nc(O)c1C#N`, the inhibition in [2] is more than 50%. In addition, in [1], the IC50 came out at 3700 nM.
`CCOC(=O)[C@H]1C[C@@H]1c1nc(SCc2cccc(F)c2F)nc(O)c1C#N` (stereo in doubt; form 1): the IC50 in data set [1] came to 320 nM.
As for `Cc1nc(SCc2cccc(F)c2F)nc(O)c1C#N`, the inhibition in [2] is more than 50%. Also, the IC50 in data set [1] turned out to be 4300 nM.
As for `N#Cc1c(O)nc(SCc2ccccc2)nc1C1CC1`, the IC50 in [1] came out at 510 nM.
For `CC(C)Oc1ccc(-c2nc(SCc3cccc(F)c3F)nc(O)c2C#N)cc1`, the inhibition in [2] is more than 50%. In addition, the IC50 in data set [1] was 1600 nM.
What is called clearance is the rate of elimination divided by the concentration. The low end stands for a low capacity for elimination, the high end for a high capacity for elimination. What is called half-life is the time in which the quantity being followed falls by half. Read a low half-life as fast loss. One may read the bioavailability as dose-corrected exposure relative to a reference, in per cent. What is called thermodynamic solubility is solubility found after equilibrating the solid with the medium. The pKa is the negative logarithm of the acid dissociation constant. On to `N#Cc1c(O)nc(SCc2cccc(F)c2F)nc1C1CC1`, for which, in data set [2], the inhibition was more than 50%. For the same compound, the results for the IC50 in data set [1] and in data set [3] were 140 nM and 40 nM, respectively. The clearance in data set [4] worked out at 1.6 mL/min/kg. Moreover, in [5], the Vd is 0.2 L/kg. The half-life in data set [6] was 6 h. Moreover, in data set [7], the bioavailability was more than 100%. The fraction unbound in data set [8] was less than 0.01. The solubility (thermodynamic) in data set [9] amounted to 10 µg/mL (≈ 31.3 µM). The compound also returned a pKa in [10] of 8.9.
For the compound `COc1ccc(-c2nc(SCc3cccc(F)c3F)nc(O)c2C#N)cc1`, the inhibition in data set [2] was more than 50%. For the same compound, the IC50 in data set [1] is 710 nM.
Consider `Cc1ccc(-c2nc(SCc3cccc(F)c3F)nc(O)c2C#N)cc1`, for which the inhibition in data set [2] is more than 50%. In addition, in [1], the IC50 is 1400 nM.
As for `CC(C)c1nc(SCc2cccc(F)c2F)nc(O)c1C#N`, the inhibition in [2] is more than 50%. For the same compound, the IC50 in data set [1] stood at 900 nM.
As for `N#Cc1c(O)nc(SCc2cccc(F)c2F)nc1[C@H]1C[C@@H]1CO`, the half-inhibitory concentration (IC50) in [1] was found to be 6 nM.
Turning to `N#Cc1c(O)nc(SCc2cccc(F)c2F)nc1-c1ccc(Cl)cc1`, in [2], the inhibition was more than 50%. The IC50 in data set [1] worked out at 7400 nM.
As to `N#Cc1c(O)nc(CSc2cccc(F)c2F)nc1C1CC1`, the IC50 in [1] was 10000 nM.
The same measure, in the same setting: the same measure for `N#Cc1c(O)nc(SCc2cccc(F)c2F)nc1-c1ccccc1`: 3700 nM.
With `COc1ccc(-c2nc(SCc3cccc(F)c3F)nc(O)c2C#N)cc1C`, the inhibition in data set [2] is more than 50%. Further, in data set [1], the IC50 came to 4600 nM.
For the compound `N#Cc1c(O)nc(CSc2ccccc2)nc1C1CC1`, the IC50 in data set [1] was more than 30000 nM.
Take `Oc1nc(SCc2cccc(F)c2F)nc(C2CC2)c1I`: the IC50 in [1] was 3200 nM.
With `N#Cc1c(O)nc(SCc2cccc(F)c2F)nc1C1CCCC1`, the inhibition in data set [2] was more than 50%. In addition, the IC50 in [1] was determined as 4900 nM.
As for `CCOC(=O)[C@H]1C[C@@H]1c1nc(SCc2cccc(F)c2F)nc(O)c1C#N` (stereo in doubt; form 2), the half-maximal inhibitory concentration (IC50) in data set [1] worked out at 1300 nM.
As to `Cc1cccc(-c2nc(SCc3cccc(F)c3F)nc(O)c2C#N)c1`, the inhibition in data set [2] was more than 50%. For the same compound, in [1], the IC50 was 4700 nM.
For the compound `N#Cc1c(O)nc(SCc2cccc(F)c2F)nc1[C@H]1C[C@@H]1C(N)=O`, the IC50 in data set [1] came out at 7 nM.
With `CCOC(=O)[C@H]1C[C@@H]1c1nc(SCc2cccc(F)c2F)nc(O)c1C#N` (racemic), the half-maximal inhibitory concentration (IC50) in [1] came to 1500 nM.
For `N#Cc1c(O)nc(SCc2cccc(F)c2F)nc1-c1ccc(O)cc1`, the inhibition in data set [2] is more than 50%. Also, the IC50 in [1] was 780 nM.
`CC(Sc1nc(O)c(C#N)c(C2CC2)n1)c1ccccc1` (stereo not drawn): the IC50 in data set [1] came to 4800 nM.
As to `CC(C)(CO)Nc1nc(SCc2cccc(F)c2F)nc(-c2ccccc2)c1C#N`, the IC50 in data set [1] was more than 30000 nM.
The same measure, in the same setting: the same measure for `Oc1cc(C2CC2)nc(SCc2cccc(F)c2F)n1`: 320 nM.
For `N#Cc1c(O)nc(SCc2c(Cl)cccc2Cl)nc1-c1ccccc1`, the values for the IC50 in data set [1] and in data set [3] were more than 30000 nM and 4300 nM, respectively.
In the case of `CS(=O)(=O)Nc1nc(SCc2cccc(F)c2F)nc(-c2ccccc2)c1C#N`, the IC50 in data set [1] was more than 30000 nM.
As to `CC(C)(Sc1nc(O)c(C#N)c(C2CC2)n1)c1ccccc1`, in data set [1], the IC50 came to 6400 nM.
`N#Cc1c(O)nc(SCc2cccc(F)c2F)nc1C1CCC1`: the inhibition in data set [2] was more than 50%. Also, in data set [1], the IC50 stood at 1700 nM.
Turning to `N#Cc1c(O)nc(SCc2cccc(F)c2F)nc1[C@H]1C[C@@H]1C(=O)O`, the IC50 in [1] came to 10 nM.
